Key:
Type in all cases: cell-based
[1] = test system: MDA-MB-468; assay: NCI-60 SRB growth inhibition, one-dose and five-dose; conditions: Homo sapiens, MDA-MB-468, read-out: percent growth inhibition
[2] = test system: SF-295; assay: as above; conditions: Homo sapiens, SF-295, read-out: percent growth inhibition
[3] = test system: SW-620; assay: as above; conditions: Homo sapiens, SW-620, read-out: percent growth inhibition
[4] = test system: CAKI-1; assay: as above; conditions: Homo sapiens, CAKI-1, read-out: percent growth inhibition
[5] = test system: SN12C; assay: as above; conditions: Homo sapiens, read-out: percent growth inhibition
[6] = test system: RXF 393; assay: as above; conditions: Homo sapiens, RXF 393, read-out: percent growth inhibition
[7] = test system: DU-145; assay: as above; conditions: Homo sapiens, DU-145, read-out: percent growth inhibition
[8] = test system: SF-539; assay: as above; conditions: Homo sapiens, SF-539, read-out: percent growth inhibition
[9] = test system: MDA-MB-435; assay: as above; conditions: Homo sapiens, MDA-MB-435, read-out: percent growth inhibition
[10] = test system: HL-60(TB); assay: cells; conditions: Homo sapiens, HL-60, read-out: percent growth inhibition
[11] = test system: RPMI-8226; assay: NCI-60 SRB growth inhibition, one-dose and five-dose; conditions: Homo sapiens, RPMI-8226, read-out: percent growth inhibition
[12] = test system: MOLT-4; assay: as above; conditions: Homo sapiens, MOLT-4, read-out: percent growth inhibition
[13] = test system: UACC-257; assay: as above; conditions: Homo sapiens, UACC-257, read-out: percent growth inhibition
[14] = test system: A549/ATCC; assay: as above; conditions: Homo sapiens, A549, read-out: percent growth inhibition
[15] = test system: SNB-19; assay: as above; conditions: Homo sapiens, SNB-19, read-out: percent growth inhibition
[16] = test system: OVCAR-8; assay: as above; conditions: Homo sapiens, OVCAR-8, read-out: percent growth inhibition
[17] = test system: SR; assay: as above; conditions: Homo sapiens, read-out: percent growth inhibition

SMILES | inhibition at 10 µM [1] [%] | inhibition at 10 µM [2] [%] | inhibition at 10 µM [3] [%] | inhibition at 10 µM [4] [%] | inhibition at 10 µM [5] [%] | inhibition at 10 µM [6] [%] | inhibition at 10 µM [7] [%] | inhibition at 10 µM [8] [%] | inhibition at 10 µM [9] [%] | inhibition at 10 µM [10] [%] | inhibition at 10 µM [11] [%] | inhibition at 10 µM [12] [%] | inhibition at 10 µM [13] [%] | inhibition at 10 µM [14] [%] | inhibition at 10 µM [15] [%] | inhibition at 10 µM [16] [%] | inhibition at 10 µM [17] [%]
CC(=O)Nc1ccc(CNc2cccc(C(=O)/C=C/c3c[nH]cn3)c2)cc1 [Compound 5l, (E)-N-(4-(((3–(3-(1H-imidazol-4-yl)acryloyl)phenyl)amino)methyl)phenyl)acetamide] | 84 | -1.21 | 24.8 | 12.4 | 19.8 | 37.7 | 11.1 | 14.1 | 11 | 65.2 | 38 | 40.3 | 19.3 | 7.54 | 26.6 | 8.86 | –
O=C(/C=C/c1c[nH]cn1)c1cccc(NCc2ccc(CO)cc2)c1 [Compound 5m, (E)-1–(3-((4-(hydroxymethyl)benzyl)amino)phenyl)-3-(1H-imidazol-4-yl)prop-2-en-1-one] | 80.5 | 4.92 | 23.8 | 8.35 | 19.9 | 38.3 | 6.04 | 11 | 8.36 | 65.9 | 63.3 | 28.5 | 22.5 | 14.1 | 16.8 | 15.4 | 92.9
O=C(/C=C/c1c[nH]cn1)c1cccc(NCc2ccc3oc(=O)ccc3c2)c1 [Compound 5n, (E)-6-(((3–(3-(1H-imidazol-4-yl)acryloyl)phenyl)amino)methyl)-2H-chromen-2-one] | 83.2 | 12.6 | 31.8 | 8.01 | 29.8 | 38.5 | 20.9 | 14.8 | 14.5 | 85.4 | 86.9 | 61.1 | 43.6 | 25.6 | 25.7 | 32.5 | 98.1

From paper PMC11003488 (Journal of Enzyme Inhibition and Medicinal Chemistry, 2023)
